These results are taken from ChEMBL document CHEMBL5532675, “Discovery of 4-Ethoxy-6-chloro-5-azaindazoles as Novel PDE4 Inhibitors for the Treatment of Alcohol Use Disorder and Alcoholic Liver Diseases” (J Med Chem, 2024).

The target in series [1] is T1, 3',5'-cyclic-AMP phosphodiesterase 4D (Homo sapiens, UniProt Q08499). In words: Inhibition of PDE4D7 (unknown origin) using FAM-cyclic-3',5'-AMP as substrate at 100 nM incubated for 1 hrs by fluorescence polarization based IMAP assay relative to control. (Fluorescence polarisation rises when a labelled molecule tumbles more slowly, as on binding a larger partner.)
T1 sequence (Q08499 whole entry): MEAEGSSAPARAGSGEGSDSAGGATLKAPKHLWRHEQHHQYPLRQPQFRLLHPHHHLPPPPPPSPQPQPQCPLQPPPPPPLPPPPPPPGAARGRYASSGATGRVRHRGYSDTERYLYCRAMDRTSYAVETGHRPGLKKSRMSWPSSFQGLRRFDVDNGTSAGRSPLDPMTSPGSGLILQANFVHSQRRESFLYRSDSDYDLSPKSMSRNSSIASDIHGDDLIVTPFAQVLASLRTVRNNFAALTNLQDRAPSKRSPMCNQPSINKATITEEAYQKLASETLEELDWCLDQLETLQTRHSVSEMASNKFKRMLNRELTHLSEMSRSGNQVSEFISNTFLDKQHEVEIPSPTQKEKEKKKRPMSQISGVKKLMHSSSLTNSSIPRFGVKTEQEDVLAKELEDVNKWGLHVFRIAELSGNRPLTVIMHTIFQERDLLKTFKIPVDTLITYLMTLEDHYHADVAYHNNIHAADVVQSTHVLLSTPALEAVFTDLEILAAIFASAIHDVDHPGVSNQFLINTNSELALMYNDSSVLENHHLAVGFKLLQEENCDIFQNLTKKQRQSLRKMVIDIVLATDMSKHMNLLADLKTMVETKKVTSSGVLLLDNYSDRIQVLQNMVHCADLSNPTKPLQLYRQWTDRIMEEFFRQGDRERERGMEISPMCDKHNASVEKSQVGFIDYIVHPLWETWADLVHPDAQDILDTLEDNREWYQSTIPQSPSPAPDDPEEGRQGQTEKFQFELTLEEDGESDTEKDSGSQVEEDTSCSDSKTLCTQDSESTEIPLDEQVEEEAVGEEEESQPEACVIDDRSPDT

For a further series, the system named is HT-22. In words: Cytotoxicity against mouse HT-22 cells assessed as reduction in cell viability incubated for 48 hrs by MTT assay. In kind it is toxicity, cell-based. As to conditions: ht-22, 48 h. (Tetrazolium dyes change colour on reduction, which living cells bring about.)
Series [2] is described as follows: Selectivity ratio for inhibition of PDE3B (unknown origin) using FAM-cyclic-3',5'-AMP as substrate to inhibition of PDE4D7 (unknown origin) using FAM-cyclic-3',5'-AMP as substrate.
Series [3] concerns the target 3',5'-cyclic-AMP phosphodiesterase 4B (Homo sapiens, UniProt Q07343). In words: Inhibition of PDE4B1 (unknown origin) using FAM-cyclic-3',5'-AMP as substrate incubated for 1 hrs by fluorescence polarization based IMAP assay.
Series [4] can be described thus: Selectivity ratio for inhibition of PDE7A (unknown origin) using FAM-cyclic-3',5'-AMP as substrate to inhibition of PDE4D7 (unknown origin) using FAM-cyclic-3',5'-AMP as substrate.
A short description of series [5]: Selectivity ratio for inhibition of PDE8A1 (unknown origin) using FAM-cyclic-3',5'-AMP as substrate to inhibition of PDE4B1 (unknown origin) using FAM-cyclic-3',5'-AMP as substrate.
In series [6] the target is High affinity cAMP-specific and IBMX-insensitive 3',5'-cyclic phosphodiesterase 8A (Homo sapiens) (UniProt O60658). As to the kind of experiment: Inhibition of PDE8A1 (unknown origin) using FAM-cyclic-3',5'-AMP as substrate at 10 uM incubated for 1 hrs by fluorescence polarization based IMAP assay relative to control.
Chain of High affinity cAMP-specific and IBMX-insensitive 3',5'-cyclic phosphodiesterase 8A (Homo sapiens) (O60658 whole entry): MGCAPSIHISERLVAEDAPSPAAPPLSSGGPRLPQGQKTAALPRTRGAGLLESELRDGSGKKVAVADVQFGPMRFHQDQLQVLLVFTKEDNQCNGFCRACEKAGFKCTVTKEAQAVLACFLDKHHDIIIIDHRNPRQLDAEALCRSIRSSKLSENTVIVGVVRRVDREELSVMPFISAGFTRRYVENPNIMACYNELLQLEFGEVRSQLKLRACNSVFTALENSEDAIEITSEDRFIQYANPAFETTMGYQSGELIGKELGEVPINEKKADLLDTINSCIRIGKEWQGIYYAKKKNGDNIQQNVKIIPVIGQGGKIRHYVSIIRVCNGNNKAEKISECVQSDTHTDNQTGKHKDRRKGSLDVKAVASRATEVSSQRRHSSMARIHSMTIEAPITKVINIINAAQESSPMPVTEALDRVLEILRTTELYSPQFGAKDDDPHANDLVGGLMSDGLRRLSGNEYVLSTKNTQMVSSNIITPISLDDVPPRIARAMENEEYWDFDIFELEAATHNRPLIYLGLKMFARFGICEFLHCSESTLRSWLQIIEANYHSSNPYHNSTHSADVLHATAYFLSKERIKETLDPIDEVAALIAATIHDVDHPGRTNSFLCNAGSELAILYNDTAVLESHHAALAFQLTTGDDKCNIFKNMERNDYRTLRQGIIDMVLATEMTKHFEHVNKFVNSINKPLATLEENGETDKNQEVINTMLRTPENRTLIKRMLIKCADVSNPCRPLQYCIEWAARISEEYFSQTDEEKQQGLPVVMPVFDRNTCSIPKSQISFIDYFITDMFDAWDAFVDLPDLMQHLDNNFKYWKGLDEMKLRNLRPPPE
Series [7] can be described thus: Selectivity ratio for inhibition of PDE9A (unknown origin) using FAM-cyclic-3',5'-AMP as substrate to inhibition of PDE4B1 (unknown origin) using FAM-cyclic-3',5'-AMP as substrate.
Series [8] concerns the target High affinity cGMP-specific 3',5'-cyclic phosphodiesterase 9A (Homo sapiens) (UniProt O76083). As to the kind of experiment: Inhibition of PDE9A (unknown origin) using FAM-cyclic-3',5'-AMP as substrate at 10 uM incubated for 1 hrs by fluorescence polarization based IMAP assay relative to control.
Series [9] addresses T1, 3',5'-cyclic-AMP phosphodiesterase 4D. In words: Inhibition of PDE4D7 (unknown origin) using FAM-cyclic-3',5'-AMP as substrate incubated for 1 hrs by fluorescence polarization based IMAP assay.
Series [10] in a line: Selectivity ratio for inhibition of PDE9A (unknown origin) using FAM-cyclic-3',5'-AMP as substrate to inhibition of PDE4D7 (unknown origin) using FAM-cyclic-3',5'-AMP as substrate.
In a further series the test system is SH-SY5Y. In words: Cytotoxicity against human SH-SY5Y cells assessed as reduction in cell viability incubated for 48 hrs by MTT assay. In kind it is toxicity, cell-based.
A short description of series [11]: Selectivity ratio for inhibition of PDE3B (unknown origin) using FAM-cyclic-3',5'-AMP as substrate to inhibition of PDE4B1 (unknown origin) using FAM-cyclic-3',5'-AMP as substrate.
Series [12] in a line: Toxicity in ketamine/xylazine-induced anesthetic C57BL/6J mouse model assessed as emetogenic potential by measuring reduction in anesthesia duration at 5 mg/kg, po preadministered with compound for 15 mins followed by ketamine/xylazine administration. Conditions: in vivo, 0.25 h. It counts as organism-based.
Series [13] concerns the target T1, 3',5'-cyclic-AMP phosphodiesterase 4D. As to the kind of experiment: Inhibition of PDE4D7 (unknown origin) using FAM-cyclic-3',5'-AMP as substrate at 10 nM incubated for 1 hrs by fluorescence polarization based IMAP assay relative to control.
Series [14] can be described thus: Selectivity ratio for inhibition of PDE7A (unknown origin) using FAM-cyclic-3',5'-AMP as substrate to inhibition of PDE4B1 (unknown origin) using FAM-cyclic-3',5'-AMP as substrate.
Series [15] in a line: Selectivity ratio for inhibition of PDE8A1 (unknown origin) using FAM-cyclic-3',5'-AMP as substrate to inhibition of PDE4D7 (unknown origin) using FAM-cyclic-3',5'-AMP as substrate.
Series [16] in a line: Chemical stability of compound in aqueous solution at pH >10 measured after 48 hrs. In kind it is physicochemical. As to conditions: buffer.
Series [17] deals with High affinity 3',5'-cyclic-AMP phosphodiesterase 7A (Homo sapiens) (UniProt Q13946). In words: Inhibition of PDE7A (unknown origin) using FAM-cyclic-3',5'-AMP as substrate at 10 uM incubated for 1 hrs by fluorescence polarization based IMAP assay relative to control.
Chain of High affinity 3',5'-cyclic-AMP phosphodiesterase 7A (Homo sapiens) (Q13946 whole entry): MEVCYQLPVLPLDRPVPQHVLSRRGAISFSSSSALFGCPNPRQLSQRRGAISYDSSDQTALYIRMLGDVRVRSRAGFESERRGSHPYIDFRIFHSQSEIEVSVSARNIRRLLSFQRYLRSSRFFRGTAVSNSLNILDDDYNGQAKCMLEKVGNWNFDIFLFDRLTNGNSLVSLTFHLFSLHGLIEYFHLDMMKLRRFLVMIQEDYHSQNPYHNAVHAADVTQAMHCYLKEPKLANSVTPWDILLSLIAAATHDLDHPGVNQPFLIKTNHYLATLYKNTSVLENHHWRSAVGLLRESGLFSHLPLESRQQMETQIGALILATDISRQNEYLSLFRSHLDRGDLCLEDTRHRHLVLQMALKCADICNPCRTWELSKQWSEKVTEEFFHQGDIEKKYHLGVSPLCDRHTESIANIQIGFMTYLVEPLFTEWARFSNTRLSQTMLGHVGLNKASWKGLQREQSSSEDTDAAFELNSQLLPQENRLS
Series [18] can be described thus: Chemical stability of compound in aqueous solution at pH <6 measured after 48 hrs. It counts as physicochemical. Conditions: buffer.
The target in series [19] is cGMP-inhibited 3',5'-cyclic phosphodiesterase 3B (Homo sapiens) (UniProt Q13370). In words: Inhibition of PDE3B (unknown origin) using FAM-cyclic-3',5'-AMP as substrate at 10 uM incubated for 1 hrs by fluorescence polarization based IMAP assay relative to control.
Chain of cGMP-inhibited 3',5'-cyclic phosphodiesterase 3B (Homo sapiens) (Q13370 whole entry, looked up): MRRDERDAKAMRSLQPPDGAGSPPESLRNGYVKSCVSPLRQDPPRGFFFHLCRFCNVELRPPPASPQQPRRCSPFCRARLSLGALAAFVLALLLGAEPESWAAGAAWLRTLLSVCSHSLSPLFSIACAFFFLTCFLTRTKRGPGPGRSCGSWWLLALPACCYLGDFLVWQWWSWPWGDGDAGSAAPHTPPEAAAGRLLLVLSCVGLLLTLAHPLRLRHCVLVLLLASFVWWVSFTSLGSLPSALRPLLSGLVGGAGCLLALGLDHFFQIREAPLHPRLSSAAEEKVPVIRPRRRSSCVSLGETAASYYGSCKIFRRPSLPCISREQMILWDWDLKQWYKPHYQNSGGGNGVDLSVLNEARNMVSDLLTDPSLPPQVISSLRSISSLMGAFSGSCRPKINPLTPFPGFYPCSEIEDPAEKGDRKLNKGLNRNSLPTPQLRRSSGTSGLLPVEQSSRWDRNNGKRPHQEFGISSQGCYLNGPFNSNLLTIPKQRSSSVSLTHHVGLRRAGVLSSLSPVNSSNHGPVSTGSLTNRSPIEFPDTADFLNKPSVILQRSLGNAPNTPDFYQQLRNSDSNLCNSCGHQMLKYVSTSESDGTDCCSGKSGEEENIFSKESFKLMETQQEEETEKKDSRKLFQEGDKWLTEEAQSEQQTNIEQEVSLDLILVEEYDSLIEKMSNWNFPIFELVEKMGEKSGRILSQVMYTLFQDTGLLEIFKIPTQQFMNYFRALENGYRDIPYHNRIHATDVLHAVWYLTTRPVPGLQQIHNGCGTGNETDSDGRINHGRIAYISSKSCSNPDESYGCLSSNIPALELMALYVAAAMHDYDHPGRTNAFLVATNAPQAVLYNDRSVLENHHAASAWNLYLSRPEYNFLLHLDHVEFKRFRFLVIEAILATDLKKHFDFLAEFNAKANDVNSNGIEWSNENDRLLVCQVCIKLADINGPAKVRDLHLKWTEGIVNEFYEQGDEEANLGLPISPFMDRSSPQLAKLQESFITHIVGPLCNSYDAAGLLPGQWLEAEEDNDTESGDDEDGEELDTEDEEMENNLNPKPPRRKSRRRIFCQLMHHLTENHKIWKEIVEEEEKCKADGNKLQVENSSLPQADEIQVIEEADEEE
Series [20] in a line: Half-life in Sprague-Dawley rat at 10 mg/kg, po measured after 48 hrs by LC-MS/MS analysis. Conditions: in vivo. It counts as ADME, organism-based.
Series [21] in a line: Oral bioavailability in Sprague-Dawley rat at 10 mg/kg measured after 48 hrs by LC-MS/MS analysis. It counts as ADME, organism-based. As to conditions: in vivo.

Chain of 3',5'-cyclic-AMP phosphodiesterase 4B (Q07343 whole entry): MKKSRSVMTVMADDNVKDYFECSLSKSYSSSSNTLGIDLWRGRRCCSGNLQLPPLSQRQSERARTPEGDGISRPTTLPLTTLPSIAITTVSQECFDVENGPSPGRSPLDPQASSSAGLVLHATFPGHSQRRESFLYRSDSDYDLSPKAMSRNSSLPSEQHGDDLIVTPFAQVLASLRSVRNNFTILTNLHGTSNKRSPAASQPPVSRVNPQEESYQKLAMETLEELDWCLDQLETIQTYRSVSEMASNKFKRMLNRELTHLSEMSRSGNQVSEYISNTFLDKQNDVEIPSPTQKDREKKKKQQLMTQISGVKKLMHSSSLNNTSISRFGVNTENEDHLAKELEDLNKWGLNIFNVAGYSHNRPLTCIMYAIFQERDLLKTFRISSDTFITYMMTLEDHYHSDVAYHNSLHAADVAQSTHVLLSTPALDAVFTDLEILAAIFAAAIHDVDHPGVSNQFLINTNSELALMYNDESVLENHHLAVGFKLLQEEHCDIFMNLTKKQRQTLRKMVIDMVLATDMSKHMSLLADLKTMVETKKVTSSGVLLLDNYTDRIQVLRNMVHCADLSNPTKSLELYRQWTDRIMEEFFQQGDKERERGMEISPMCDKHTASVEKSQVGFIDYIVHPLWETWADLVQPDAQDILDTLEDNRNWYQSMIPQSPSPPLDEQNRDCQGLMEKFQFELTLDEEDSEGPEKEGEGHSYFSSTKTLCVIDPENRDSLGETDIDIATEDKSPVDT
Chain of High affinity cGMP-specific 3',5'-cyclic phosphodiesterase 9A (Homo sapiens) (O76083 whole entry): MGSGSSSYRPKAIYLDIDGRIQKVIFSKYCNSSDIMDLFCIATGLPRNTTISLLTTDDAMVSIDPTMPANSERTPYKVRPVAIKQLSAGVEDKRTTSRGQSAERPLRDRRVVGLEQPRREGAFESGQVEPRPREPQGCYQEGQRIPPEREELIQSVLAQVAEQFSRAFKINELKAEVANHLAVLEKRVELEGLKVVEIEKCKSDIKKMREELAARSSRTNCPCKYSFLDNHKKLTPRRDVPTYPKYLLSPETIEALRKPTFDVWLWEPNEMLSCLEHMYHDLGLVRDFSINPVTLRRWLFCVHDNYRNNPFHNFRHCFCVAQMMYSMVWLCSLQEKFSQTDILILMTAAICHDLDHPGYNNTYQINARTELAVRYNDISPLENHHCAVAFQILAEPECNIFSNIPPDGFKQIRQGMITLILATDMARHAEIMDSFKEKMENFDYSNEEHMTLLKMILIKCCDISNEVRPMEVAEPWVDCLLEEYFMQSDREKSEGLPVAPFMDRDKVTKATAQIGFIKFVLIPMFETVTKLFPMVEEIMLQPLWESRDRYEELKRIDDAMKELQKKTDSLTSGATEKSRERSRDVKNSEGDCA

With `CCOc1nc(Cl)cc2nn(CCC(=O)O)cc12`, the inhibition in [1] came to 69%; in series [6] it was 7%; in series [8], 6%; in [13], 35%; in series [17] it was 12%; in [19] it was 7%. For the same compound, the Activity result is given as “Non-Toxic” with HT-22, “Non-Toxic” with SH-SY5Y and “Toxic” in [12]. Besides, the Selectivity ratio in series [2], in [4], in series [5], in [7], in [10] and in [11] was above 284 in each case. Also, the Selectivity ratio in [14] and in series [15] was above 284 each time. The values for the IC50 in series [3] and in series [9] were 35.2 nM and 25.6 nM, respectively. For the same compound, the Stability entry in series [16] and in series [18] was “Stable” throughout.

With `CCNc1cc(C(=O)C2CCCC2)ccc1OC`, the half-life in series [20] was 59.4 min. The compound also showed a bioavailability in [21] of 43%.

By inhibition is commonly meant the share of the control response that was lost under treatment. Read a high inhibition as strong suppression. The IC50 is the concentration needed to halve the response being measured. For orientation: half-life means the time in which the quantity being followed falls by half. A lower half-life goes with fast loss. By bioavailability is commonly meant the share of a dose that reaches the circulation, judged against a reference dose that is usually intravenous.
